This note sets out measurements from ChEMBL document CHEMBL1139571, “Synthesis and characterization of azole isoflavone inhibitors of aromatase” (Bioorg Med Chem Lett, 2005).

This experiment deals with T1, Aromatase (Homo sapiens, UniProt P11511).
T1 sequence (P11511 whole entry): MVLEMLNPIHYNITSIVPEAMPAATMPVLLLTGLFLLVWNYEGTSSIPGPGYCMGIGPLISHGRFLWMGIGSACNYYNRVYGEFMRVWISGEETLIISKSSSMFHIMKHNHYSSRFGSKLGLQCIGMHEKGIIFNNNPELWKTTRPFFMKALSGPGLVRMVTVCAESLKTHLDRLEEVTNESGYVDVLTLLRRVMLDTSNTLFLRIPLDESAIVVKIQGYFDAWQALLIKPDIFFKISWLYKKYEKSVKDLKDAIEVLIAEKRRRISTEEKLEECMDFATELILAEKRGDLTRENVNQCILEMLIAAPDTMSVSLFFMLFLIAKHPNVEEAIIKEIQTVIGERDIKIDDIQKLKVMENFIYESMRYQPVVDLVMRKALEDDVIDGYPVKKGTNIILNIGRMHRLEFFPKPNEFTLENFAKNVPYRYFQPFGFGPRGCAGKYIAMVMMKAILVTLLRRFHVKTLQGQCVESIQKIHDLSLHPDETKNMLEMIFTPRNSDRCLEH
Description: Inhibitory concentration against human placental aromatase by deutirium oxide release

`COc1ccc2c(=O)c(-c3ccccc3)c(Sc3nccn3C)oc2c1` returned an IC50 of over 50 µM.

As usually defined, the IC50 is the midpoint of a concentration-inhibition curve.
